What was measured:
normal mice = assay: 3 chamber test in normal mice; format: in vivo; settings: 5 mg/kg, sociability measurement-2 session, FIG. 14b
Description: 3-chamber test is a test to confirm sociability, social cognition, and social sexual preference, and it was tested by composing sessions 1 and 2. The experimental site was consisted of three chambers made of transparent acrylic walls with a small door and each chamber was length 50 cm×width 100 cm×height 50 cm. Through a cylindrical cage, the sense of smell and minimal contact of the test mice to the unfamiliar mouse were allowed. Prior to the test, the test mice were placed in an intermediate chamber and adapted for 5 minutes with both doors closed. The test was performed by dividing into sessions I and II. In the 3-chamber sociability measurement-1 session, an unfamiliar mouse met first was placed in a transparent box located at one end of the three rooms, and an empty transparent box of the same size was placed in the room located at the other side, and the target mouse was placed in the middle room, and then the time searching toward the counterpart within the social interaction zone was measured.
In order to verify this possibility, the efficacy of athyriol on memory ability and sociability of normal animals was investigated. […]

mTORC1 = biological target: T1, mTORC1 (Homo sapiens, UniProt P42345); assay: In vitro mTORC1 kinase assay (GST-S6K Thr389 phosphorylation, immunoblot); format: biochemical
T1 construct: mTORC1 was isolated by co-immunoprecipitation using Flag antibody; made in house; host or cells: HEK 293T transfected with Flag-Raptor
Description: In order to investigate the effect on mTORC1 activity of norathyriol, in vitro mTORC1 kinase assay was performed. After introducing Flag-Raptor into a human cell line 293T, mTORC1 was isolated by co-immunoprecipitation using Flag antibody. In addition, the activity of the isolated mTORC1 complex was evaluated by measuring phosphorylation of GST-S6K Thr389, which is a selective substrate of mTORC1, by immunoblot analysis. In the control group in which Flag-Raptor was not introduced, GST-S6K Thr389 phosphorylation was almost not measured. […] Therefore, it was judged that GST-S6K Thr389 phosphorylation measured in the in vitro mTORC1 kinase assay was generated by mTORC1. In order to evaluate the inhibitory effect of norathyriol on mTORC1 activity, norathyriol was pretreated for 15 minutes, and then in vitro mTORC1 kinase assay was carried out.
More specifically, the HEK 293T cells were cultured in a DMEM culture medium in which 10% heat inactivated FBS+1× Glutamax was added. 8×10^5 HEK 293T cells were seeded in a 100 mm culture dish, and then they were cultured for 1 day. After mixing 42 μl Lipofectamine, 21 μl plus reagent, and 21 μg Flag-Raptor plasmid DNA to 1 ml OPTI-MEM, it was shaken at a room temperature for 25 minutes to prepare a transfection DNA mixture. The transfection DNA mixture was slowly treated on the cells drop by drop, and after culturing for 5 hours, the culture medium was replaced with a new culture medium. […] The protein concentration of the cell lysate was determined with BCA protein assay kit (Thermo Fisher Scientific). […] Thr389 phosphorylation of GST-S6K1, which is a substrate of mTORC1, was measured by performing immunoblot analysis using phospho Thr389 p70 S6 kinase antibody (#9205S, Cell Signaling) and GST antibody (#A190-122A, Bethyl Laboratories). […]

| Compound | increase in ratio of searching time for familiar mice to searching time for unfamiliar mice compared to vehicle control (normal mice) [%] | GST-S6K Thr389 phosphorylation (mTORC1; 20 μM, 40 μM and 80 μM, FIG. 6c) | IC50 (mTORC1; in vitro mTORC1 kinase assay) [µM] |
| --- | --- | --- | --- |
| COc1cc(O)c2c(=O)c3cc(O)c(O)cc3oc2c1 [athyriol, 1,6,7-Trihydroxy-3-methoxy-9H-xanthen-9-on] | 11 | – | – |
| O=c1c2cc(O)c(O)cc2oc2cc(O)cc(O)c12 [norathyriol, 1,3,6,7-tetrahydroxy-9H-xanthen-9-one] | – | not reduced at a significant level | > 80 |

— patent US20240366555A1, “SELECTIVE MTORC2 INHIBITOR AND USES THEREOF” (ALIAD BIOPHARMA, priority 2021, published 2024)
